Measurements published in US20210093625A1, “COMBINATION THERAPY” (Celleron Therapeutics Limited, priority 2019, published 2021).

Experiments:
[1] = target: HDAC1 (Homo sapiens, UniProt Q13547); assay: HDAC1 inhibition; assay type: biochemical
[2] = target: HDAC2 (Homo sapiens, UniProt Q92769); assay: HDAC2 inhibition; assay type: biochemical
[3] = target: HDAC3 (Homo sapiens, UniProt O15379); assay: HDAC3 inhibition; assay type: biochemical
[4] = system: SW620 cells; assay: RNA-seq of SW620 cells; assay type: cell-based, human
Experimental: We performed RNA-seq on polyA-enriched RNA to assess the effect of CXD101 on the global transcript profile in SW620 cells compared to the vehicle-alone (DMSO) treatment (18). The FASTQ data were aligned to the reference human genome (hg19) with STAR aligner and analysed for differential expression using Bioconductor and DESeq2 R suite (19). The sequencing data were of high quality with on average 92% of the reads able to be mapped to the genome (FIG. 1b).
(§1) SW620 cells were seeded into 6-well plates and left to adhere overnight. Cells were treated with 1 μM, 10 μM of CXD101 for 48 h. CT26 cells were seeded onto 100 mm plates and treated with 2.7 μM and 10 μM CXD101 for 72 h. After treatment cells were harvested and total RNA extracted by means of Promega ReliaPrepμ RNA Cell Miniprep System (Promega, USA). RNA was dissolved in RNAse free water and stored in −80° C. for future analysis. RNA concentration was measured by NanoDrop 2000 (Thermo Fisher Scientific, USA). Samples were qualified for library preparation if […]. Library preparation with poly (A) enrichment was performed by BGI.
(§2) FASTQ files for CXD101 and DMSO treated samples in three biological replicates were trimmed to remove adapters and low-quality bases with TrimGalore v.0.4.3(http://www.bioinformatics.babraham.ac.uk/projects/trim_galore/). The trimmed reads were aligned to the human reference genome (build hg19) with STAR aligner v.2.7 with two mismatches allowed. Differential gene expression analysis was done with the Bioconductor framework (v.3.8) and DESeq2 R package v.1.22, using read count data provided by the aligner. Genes were considered differentially expressed if the adjusted P, calculated using the Benjamini-Hochberg method in order to minimise the false discovery rate, was less than 0.01 (1%) and the change in expression level was greater than ˜2-fold as compared to DMSO control (e.g. |log_2(expression fold change) |>1).

[5] = system: SW620 cells; assay: qPCR of single genes in SW620 cells; assay type: cell-based, human; conditions: control gene, FIG. 3
Experimental: Total RNA purified from DMSO- or CXD101treated cells was transcribed into cDNA according to the manufacturer's instructions (iScript cDNA Synthesis Kit, Bio-Rad, USA). qPCR was conducted according to the manufacturer's protocol (SsoAdvanced Universal SYBR Green Supermix, Bio-Rad Laboratories, USA) on CFX Connect Real-Time System thermocycler (Bio-Rad Laboratories, USA).

[6] = system: colon26 cells; assay: RNAseq of colon26 cells in vitro; assay type: cell-based, mouse; conditions: for differentially expressed genes that are immune-related: out of 1142 DEGs
Source text: The RNAseq data was aligned to the reference M.musculus genome (mm10) with STAR aligner and analysed for differential expression. […] Out of 1142 differentially expressed genes identified following CXD101 treatment, 36% (416) were immune-related when analysed using the immunogenicity database (ref), and 34% (388) and 15% (176) when analysed with Import and Immunome databases (ref). We further evaluated transcripts identified in the colon26 RNAseq at the single gene level, focussing on murine genes which are homologues of the immune-related genes identified in human SW620 cells, which included genes in the murine MHC H2 complex. A number of H2 genes including class I and class II genes were induced including H2-D1, DMA, DMB1 and EB1 (FIG. 6).
as §1, §2

[7] = system: colon26 tumours; assay: RNAseq of colon26 tumours; assay type: in vivo, Balb/c mice; conditions: log2FC >1 and FDR <1%
Experimental: To assess gene expression in tumours that were growing in vivo, we evaluated the effect of CXD101 in the syngeneic colon26 colon carcinoma model in tumours grown subcutaneously in Balb/c mice, with CXD101 given orally for two 5-day consecutive periods and performed RNAseq on RNA purified from the tumours. Formalin-fixed paraffin-embedded samples were also prepared to assess by immunohistochemistry (IHC) the tumour micro-environment.
The effect was dose-dependent, as more tumour-inhibition occurred with a higher dose of CXD101 (50 mg/kg compared to 15 mg/kg). […] We performed RNA seq on polyA-enriched RNA prepared from the tumours. In a similar way to the analysis of colon26 in vitro, the RNAseq data was aligned to the reference M.musculus genome (mm10) with STAR aligner and analysed for differential expression.

[8] = physchem; conditions: 25 °C, aqueous buffer
[9] = human patients, cited from earlier work
[10] = colon26 cells in vitro, log2 FC >1 and FDR <1%

Sequence of HDAC1 (Q13547 whole entry, species assumed): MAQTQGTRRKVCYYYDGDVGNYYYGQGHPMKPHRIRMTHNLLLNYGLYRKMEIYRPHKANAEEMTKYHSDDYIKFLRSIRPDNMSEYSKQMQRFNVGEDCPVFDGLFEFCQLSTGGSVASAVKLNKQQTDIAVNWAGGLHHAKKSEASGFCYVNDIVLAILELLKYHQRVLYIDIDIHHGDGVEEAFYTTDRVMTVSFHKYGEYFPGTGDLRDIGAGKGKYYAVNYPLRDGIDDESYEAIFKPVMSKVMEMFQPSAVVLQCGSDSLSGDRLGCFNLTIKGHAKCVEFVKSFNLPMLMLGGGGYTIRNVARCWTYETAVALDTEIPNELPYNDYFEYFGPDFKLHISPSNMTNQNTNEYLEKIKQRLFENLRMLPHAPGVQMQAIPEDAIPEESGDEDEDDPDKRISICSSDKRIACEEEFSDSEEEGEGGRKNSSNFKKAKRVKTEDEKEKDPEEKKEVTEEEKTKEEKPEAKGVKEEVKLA
Sequence of HDAC3 (O15379 whole entry, species assumed): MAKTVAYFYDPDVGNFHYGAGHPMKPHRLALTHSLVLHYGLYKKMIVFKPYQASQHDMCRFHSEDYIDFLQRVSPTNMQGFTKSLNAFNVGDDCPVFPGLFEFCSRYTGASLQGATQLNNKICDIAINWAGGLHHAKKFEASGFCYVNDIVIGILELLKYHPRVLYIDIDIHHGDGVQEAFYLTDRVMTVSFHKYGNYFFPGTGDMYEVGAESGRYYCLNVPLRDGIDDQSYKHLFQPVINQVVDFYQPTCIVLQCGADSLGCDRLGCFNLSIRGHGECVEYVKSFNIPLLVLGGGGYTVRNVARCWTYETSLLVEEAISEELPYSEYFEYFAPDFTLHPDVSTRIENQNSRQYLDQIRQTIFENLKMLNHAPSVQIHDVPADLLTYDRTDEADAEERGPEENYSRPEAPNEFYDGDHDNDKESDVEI
Sequence of HDAC3 (Q9Y618 395-489 partner limits assumed, species assumed): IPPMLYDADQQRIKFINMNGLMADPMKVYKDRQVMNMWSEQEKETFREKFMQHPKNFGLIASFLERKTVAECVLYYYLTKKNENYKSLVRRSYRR
Sequence of HDAC2 (Q92769 whole entry, species assumed): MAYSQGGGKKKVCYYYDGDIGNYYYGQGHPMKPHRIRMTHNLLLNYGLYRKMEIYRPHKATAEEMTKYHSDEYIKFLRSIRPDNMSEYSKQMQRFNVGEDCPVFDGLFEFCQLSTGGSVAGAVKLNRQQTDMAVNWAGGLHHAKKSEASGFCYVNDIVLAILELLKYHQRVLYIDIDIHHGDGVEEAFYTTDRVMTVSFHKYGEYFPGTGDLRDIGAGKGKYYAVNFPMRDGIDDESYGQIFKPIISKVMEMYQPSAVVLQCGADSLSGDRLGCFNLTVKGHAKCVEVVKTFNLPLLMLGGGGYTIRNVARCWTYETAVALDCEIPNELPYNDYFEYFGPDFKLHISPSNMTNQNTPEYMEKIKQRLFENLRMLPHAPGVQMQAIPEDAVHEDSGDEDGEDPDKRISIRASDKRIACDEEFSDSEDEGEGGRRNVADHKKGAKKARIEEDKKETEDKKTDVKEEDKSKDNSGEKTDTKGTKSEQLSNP

What does the source list for Cc1nn(C)cc1CN1CCC(c2ccc(C(=O)Nc3ccccc3N)cc2)CC1 [CXD101, N-(2-aminophenyl)-4-(1-[(1,3-dimethyl-1H-pyrazol-4-yl)methyl]piperidin-4yl)benzamide]?
IC50 [1]: 63 nM; IC50 [2]: 570 nM; IC50 [3]: 550 nM; proportion of DEGs down-regulated ([4]; SW620): 30%; proportion of DEGs up-regulated ([4]; SW620): 70%; number of differentially expressed transcripts (DEGs) ([4]; SW620, log2 FC >1 and FDR <1%, vs DMSO): about 2500; expression of REPIN1 [5]: no effect; genes down-regulated [6, 10]: 611; genes up-regulated [6, 10]: 1891; size of DEG set in vitro ([6]; colon26 cells, log2FC >1 and FDR <1%): 2502; differentially expressed genes that are immune-related ([6]; Immunome database): 15%; differentially expressed genes that are immune-related ([6]; Import database): 34%; differentially expressed genes that are immune-related ([6]; immunogenicity database): 36%; size of DEG set in vivo [7]: 1141; solubility [8]: ≥ 500 µg/mL; MTD ([9]; for 5 days in a 3-weekly cycle): 20 mg B.D.; safety profile [9]: favourable safety profile
